Laboratory results taken from US7105488B1, “G protein-coupled receptor antagonists” (priority 1998, dated 2006).
Where a SMILES comes first, the peptide text is derived from it.

Tests used:
[1] = molecular target: CXCR4 receptor (Homo sapiens, UniProt P61073); test: Inhibition of SDF-1α-induced intracellular calcium release (Fura-2/AM) in HeLa and U87 cells; format: cell-based; conditions: SDF-1α-induced intracellular calcium release; Table 2
Method: The effect of the peptides on CXCR4-mediated calcium fluxes in HeLa cells that naturally express the CXCR4 receptor and U87 cells stably expressing the CXCR4 receptor was tested as follows. Cells grown on Nunc cover glass chamber slides were incubated with 1 micromolar Fura-2/AM for 20 min in a CO2-incubator, rinsed with PBS and mounted on the stage of a Zeiss Axiovert inverted microscope. [Ca^2+]i measurements were performed using an Attofluor digital imaging system (Atto Instruments, Rockville, Md.). Fluorescence of Fura was excited at alternating wavelength of 340 and 380 nm. […] Calibrations of [Ca^2+]i signals were performed using Ca^2+ standards containing 1 micromolar Fura. CXCR4 antagonists were tested on HeLa cells and U87 cells. Stromal cell-derived factor-1α (SDF-1α) was used as a specific CXCR4 agonist. CCR5 antagonists, which were used in selectivity studies as described below, were tested on HEK (human kidney […]) cells stably expressing the CCR5 receptor and RANTES was used as an agonist. The antagonist activity of the peptides was evaluated by measuring the inhibition of agonist-evoked intracellular Ca^2+i release. These measurements were carried out in Fura-2/AM-treated cells, utilizing an Attofluor digital imaging system as described above. The agonist was SDF-1 α.

[2] = tested on: HIV-1RF; test: Anti-HIV-1 cytoprotection assay, CEM-SS cells infected with HIV-1RF; format: cell-based; conditions: HIV-1 strain RF, FIG. 2

Chain of CXCR4 receptor (P61073 whole entry): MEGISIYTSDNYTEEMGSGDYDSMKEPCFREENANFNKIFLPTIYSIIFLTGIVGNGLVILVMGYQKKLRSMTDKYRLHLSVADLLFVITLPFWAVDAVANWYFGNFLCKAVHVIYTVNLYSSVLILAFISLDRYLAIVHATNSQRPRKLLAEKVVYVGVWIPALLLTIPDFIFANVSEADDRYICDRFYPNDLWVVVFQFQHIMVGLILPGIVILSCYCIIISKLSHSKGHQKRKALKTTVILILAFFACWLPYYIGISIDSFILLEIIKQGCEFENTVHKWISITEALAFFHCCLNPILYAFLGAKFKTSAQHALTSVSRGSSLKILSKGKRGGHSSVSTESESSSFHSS

CC[C@H](C)[C@H](NC(=O)[C@H](Cc1ccccc1)NC(=O)[C@H](CC(=O)O)NC(=O)[C@@H]1CCCN1C(=O)[C@@H](NC(=O)[C@@H](NC(=O)[C@H](CC(C)C)NC(=O)[C@H](CC(C)C)NC(=O)[C@H](CC(C)C)NC(=O)[C@H](C)NC(=O)[C@@H]1CCCN1C(=O)[C@@H](NC(=O)[C@H](Cc1c[nH]c2ccccc12)NC(=O)[C@@H](NC(=O)CNC(=O)[C@@H](NC(=O)[C@H](Cc1ccc(O)cc1)NC(=O)[C@@H](N)C(C)C)C(C)C)C(C)C)[C@@H](C)CC)[C@@H](C)O)[C@@H](C)CC)C(=O)N[C@@H](Cc1ccccc1)C(=O)N[C@@H](C)C(=O)N[C@@H](CC(N)=O)C(=O)N[C@@H](CC(=O)O)C(=O)N[C@@H](CC(=O)O)C(=O)O [Peptide F-4-2] (H-VYVGVWIPALLLTIPDFIFANDD-OH; N-terminus and C-terminus assumed)
Concentration, required for inhibition of signal transduction [1]: 5 µM
Concentration that completely inhibited infection [2]: 1 µM
